Data set [1] is described as follows: Product stability in mouse plasma (in vitro). Type of data set: in vitro ADME. Particulars: mean ± SD (n = 3-4), normalized to fraction immediately after preparation. How it is done: (§1) In brief, the freshly produced ^99mTc-labeled radioligand solution (10-20 MBq, 20-100 μL) was added to the respective medium (200-400 μL), vortexed quickly, and shook gently at the respective temperature mentioned below. At certain time points, samples were taken, diluted, and measured by radio-RP-HPLC. Hereby, investigation of plasma samples included protein precipitation with the 4-fold volume of an ice-cold mixture of methanol/water (4/1, v/v), intensive shaking (5 min) and centrifugation (14,000 rpm, 10 min), before inspection of the supernatant. In addition, the recovery of extracted activity was calculated after activity measurement of supernatant and residue by a gamma counter.

Data set [2] can be described thus: Product stability in DPBS at 25° C. Type of data set: physicochemical. Particulars: DPBS (+Ca2+, +Mg2+), mean ± SD, normalized to fraction immediately after preparation. How it is done:
as §1

Data set [3] can be described thus: Determination of log D values (shake-flask, octanol/medium). Type of data set: physicochemical. Particulars: for LogD (shake-flask, octanol/medium) Na-phosphate pH 7.4: 4.4 mM Na2HPO4, 2.2 mM NaH2PO4, pH 7.4. On the procedure: Log D values were determined for different media by the shake-flask method (Andrés, A.; Rosés, M.; Ràfols, C.; Bosch, E.; Espinosa, S.; Segarra, V.; Huerta, J. M. Setup and validation of shake-flask procedures for the determination of partition coefficients (log D) from low drug amounts. Eur. J. Pharm. Sci. 2015, 76, 181-191.). In preparation, octanol was saturated with each of the used buffer solutions and vice versa. To 3 mL of octanol, together with 3 mL of buffer solution 200-300 μL of the ^99mTc-labeled radioligand (15-25 MBq, samples in triplicate) were added and shaken vigorously for 30 min. After centrifugation at 9,000 rpm for 15 min, samples were taken from both separated phases and measured by gamma-counter. Log D values were calculated as the ratio of radioactivity determined in octanol and aqueous phase.

The text below walks through data of patent publication US20250319213A1, “FUNCTIONALIZED BISAMINOTHIOL DERIVATIVES, COMPLEXES WITH THESE BISAMINOTHIOL DERIVATIVES AND USE OF SAID COMPLEXES AS DIAGNOSTICS AND THERAPEUTICS” (ABX ADVANCED BIOCHEMICAL COMPOUNDS – BIOMEDIZINISCHE …, priority 2022, published 2025).

As to `CC1(C)CN(CCCCC(=O)N[C@@H](Cc2ccccc2)C(=O)N[C@@H](Cc2ccccc2)C(=O)N[C@@H](CCCCNC(=O)CCCCCCC(=O)NCCCC[C@H](NC(=O)N[C@@H](CCC(=O)O)C(=O)O)C(=O)O)C(=O)O)CC[N]2CC(C)(C)[S][99Tc]2(=[O])[S]1` (stereo partly shown) [[^99mTc]TcO-1], the “Fraction of radioligand after 6 h in mouse plasma at 37° C.” value in data set [1] amounted to 96.8 ± 0.3%. In data set [2], the “Fraction of radioligand in DPBS at 25° C., 1 h” value is given as 101.5 ± 0.6%; the “Fraction of radioligand in DPBS at 25° C., 2 h” value was found to be 99.5 ± 0.8%; the “Fraction of radioligand in DPBS at 25° C., 4 h” value was found to be 100.2 ± 1.0%; the “Fraction of radioligand in DPBS at 25° C., 20 h” value is on record as 93.5 ± 1.8%. In addition, in data set [3], the “LogD (shake-flask, octanol/medium) Na-phosphate pH 7.4” value is recorded as −2.18 ± 0.002; the “LogD (shake-flask, octanol/medium) PBS 0.1M pH 7.4” value is listed as −1.62 ± 0.01; the “LogD (shake-flask, octanol/medium) TRIS buffer 0.1M pH 7.4” value was −2.18 ± 0.01.
In the case of `CC1(C)CN(CCCCC(=O)N[C@@H](Cc2ccccc2)C(=O)N[C@@H](Cc2ccccc2)C(=O)N[C@H](CCCCNC(=O)CCCCCCC(=O)NCCCC[C@H](NC(=O)N[C@@H](CCC(=O)O)C(=O)O)C(=O)O)C(=O)O)CC[N]2CC(C)(C)[S][99Tc]2(=[O])[S]1` (stereo partly shown) [[^99mTc]TcO-2], in data set [1], the “Fraction of radioligand after 6 h in mouse plasma at 37° C.” value was 98.3 ± 1.1%. Also, in data set [2], the “Fraction of radioligand in DPBS at 25° C., 1 h” value is reported as 89.9 ± 2.3%; the “Fraction of radioligand in DPBS at 25° C., 2 h” value was determined as 97.7 ± 2.3%; the “Fraction of radioligand in DPBS at 25° C., 4 h” value is 80.7 ± 12.0%; the “Fraction of radioligand in DPBS at 25° C., 20 h” value is reported as 89.2 ± 2.7%. Moreover, in data set [3], the “LogD (shake-flask, octanol/medium) Na-phosphate pH 7.4” value was −2.08 ± 0.01; the “LogD (shake-flask, octanol/medium) PBS 0.1M pH 7.4” value is on record as −2.16 ± 0.03; the “LogD (shake-flask, octanol/medium) TRIS buffer 0.1M pH 7.4” value was −2.16 ± 0.02.
